Ki data for 26 compounds are collected here from ChEMBL document CHEMBL1772987, “Development of amidine-based sphingosine kinase 1 nanomolar inhibitors and reduction of sphingosine 1-phosphate in human leukemia cells” (J Med Chem, 2011).

Each structure is given as a SMILES string. pKi: −log10 of the molar value.

T2 sequence (Q9NYA1 whole entry): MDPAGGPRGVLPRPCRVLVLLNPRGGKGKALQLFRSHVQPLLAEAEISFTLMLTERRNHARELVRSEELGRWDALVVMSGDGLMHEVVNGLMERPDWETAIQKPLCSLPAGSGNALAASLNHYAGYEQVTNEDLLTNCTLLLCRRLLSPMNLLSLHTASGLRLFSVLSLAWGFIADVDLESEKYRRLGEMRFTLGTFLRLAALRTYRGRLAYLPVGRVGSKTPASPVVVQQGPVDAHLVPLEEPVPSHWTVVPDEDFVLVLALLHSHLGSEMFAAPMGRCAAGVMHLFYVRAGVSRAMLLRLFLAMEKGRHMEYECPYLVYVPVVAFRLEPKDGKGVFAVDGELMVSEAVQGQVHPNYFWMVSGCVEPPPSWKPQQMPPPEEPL

In one assay the target is T1, Sphingosine kinase 2 (Mus musculus, UniProt Q9JIA7).
T1 sequence (Q9JIA7 whole entry): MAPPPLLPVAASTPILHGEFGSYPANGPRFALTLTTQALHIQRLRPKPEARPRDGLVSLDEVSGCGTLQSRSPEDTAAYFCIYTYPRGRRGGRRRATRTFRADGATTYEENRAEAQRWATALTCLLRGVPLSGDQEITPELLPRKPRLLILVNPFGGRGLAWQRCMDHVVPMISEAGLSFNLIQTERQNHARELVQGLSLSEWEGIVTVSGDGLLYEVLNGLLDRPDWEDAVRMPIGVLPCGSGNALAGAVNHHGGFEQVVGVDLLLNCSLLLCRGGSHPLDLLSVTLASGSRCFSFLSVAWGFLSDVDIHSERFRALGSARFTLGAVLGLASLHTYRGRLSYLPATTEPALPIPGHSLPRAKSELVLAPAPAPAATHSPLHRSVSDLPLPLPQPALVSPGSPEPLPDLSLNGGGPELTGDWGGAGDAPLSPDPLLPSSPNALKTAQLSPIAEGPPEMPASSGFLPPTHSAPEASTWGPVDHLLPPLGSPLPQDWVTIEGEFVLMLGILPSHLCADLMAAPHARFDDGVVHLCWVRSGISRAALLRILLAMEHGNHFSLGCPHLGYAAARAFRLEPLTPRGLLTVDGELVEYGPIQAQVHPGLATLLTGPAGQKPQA
Nature of the assay: Inhibition of mouse recombinant SPHK2 expressed in baculovirus-infected Sf9 cells.
Regarding `Oc1ccc(Nc2nc(-c3ccc(Cl)cc3)cs2)cc1`, the pKi was 4.48.

As for `CCCCCCCCCCCCCCNC(=O)C1(C(=N)N)CC1`, the pKi was 5.12.

As for `CCCCCCCCCCCCCCCCNC(=O)C1(C(=N)N)CC1`, the pKi was < 4.00.

In the case of `CCCCCCCCCCCCCCCCCCNC(=O)C1(C(=N)N)CC1`, the pKi was < 4.00.

As to `N=C(N)C1(C(=O)Nc2ccc(CCCCCCCOCc3ccccc3)cc2)CC1`, the pKi is 4.42.

On to `N=C(N)C1(C(=O)Nc2ccc(CCCCCCCCCc3ccccc3)cc2)CC1`, for which the pKi is < 5.00.

On to `N=C(N)C1(C(=O)Nc2ccc(CCCCCCCCc3ccccc3)cc2)CC1`, for which the pKi is < 5.00.

On to `N=C(N)C1(C(=O)Nc2ccc(CCCCCCOCC3CCCCC3)cc2)CC1`, for which the pKi was 4.92.

Consider `N=C(N)C1(C(=O)Nc2ccc(CCCCCCCOCC3CCCCC3)cc2)CC1`, for which the pKi is 5.15.

As for `N=C(N)C1(C(=O)Nc2ccc(CCCCCCCCOCC3CCCCC3)cc2)CC1`, the negative-log Ki (pKi) was < 4.70.

As to `N=C(N)C1(C(=O)Nc2ccc(CCCCCCCOCC34CC5CC(CC(C5)C3)C4)cc2)CC1`, the pKi was 5.34.

Regarding `N=C(N)C1(C(=O)NCCCCCCCCCCOCC2CCCCC2)CC1`, the pKi was 4.59.

As for `N=C(N)C1(C(=O)NCCCCCCCCCCOCC2CCCC2)CC1`, the pKi was 4.60.

For the compound `N=C(N)C1(NC(=O)c2ccc(CCCCCCCOCC3CCCCC3)cc2)CC1`, the pKi is 4.82.

Consider `N=C(N)C1(NC(=O)c2ccc(CCCCCCCOCC3CCCC3)cc2)CC1`, for which the pKi is 4.74.

In the case of `CCCCOCCCCCCCc1ccc(C(=O)NC2(C(=N)N)CC2)cc1`, the pKi is 4.40.

As for `CCCCCCCCCCCOc1ccc(C(=O)NC2(C(=N)N)CC2)cc1`, the pKi is 5.00.

With `N=C(N)C1(NC(=O)CCCCCCCCCCOCC2CCCCC2)CC1`, the pKi is 4.92.

For `CCCCCCCCCCCCc1ccc(C(=O)NC2(C(=N)N)CCC2)cc1`, the pKi was 5.30.

As to `N=C(N)[C@@H]1CCCN1C(=O)c1ccc(CCCCCCCOCC2CCCCC2)cc1`, the negative-log Ki (pKi) is 5.52.

For `N=C(N)[C@@H]1CCCN1C(=O)c1ccc(CCCCCCCCCC2CCCCC2)cc1`, the pKi is 5.28.

For `N=C(N)[C@@H]1CCCN1C(=O)CCCCCCCCCCOCC1CCCCC1`, the pKi is 5.10.

Regarding `N=C(N)[C@@H]1CCCN1C(=O)c1ccc(-c2nc(-c3cccc(CCC4CCCCC4)c3)c[nH]2)cc1`, the pKi is 4.70.

`N=C(N)[C@@H]1CCCN1C(=O)c1ccc(-c2nc(-c3cccc(CCC4CCCCC4)c3)co2)cc1`: the pKi is 5.38.

On to `N=C(N)[C@@H]1CCCN1C(=O)c1ccc(-c2nc(-c3cccc(CCC4CCCCC4)c3)cs2)cc1`, for which the pKi was 5.22.

As to `CCCCCCCCc1ccc(NC(=O)[C@@H](N)CCO)cc1`, the pKi was 4.51.

Another assay deals with Sphingosine kinase 2 (Mus musculus) (UniProt Q9JIA7). Nature of the assay: Inhibition of SPHK2.
As for `CCCCCCCCc1ccc(NC(=O)[C@@H](N)CCO)cc1`, the pKi was 4.51.

A further assay has as its target T2, Sphingosine kinase 1 (Homo sapiens, UniProt Q9NYA1).
Assay: not given
Take `N=C(N)C1(C(=O)NCCCCCCCCCCOCC2CCCCC2)CC1`: the pKi is 6.96.

Turning to `N=C(N)[C@@H]1CCCN1C(=O)c1ccc(CCCCCCCOCC2CCCCC2)cc1`, the pKi was 7.12.

`N=C(N)[C@@H]1CCCN1C(=O)c1ccc(-c2nc(-c3cccc(CCC4CCCCC4)c3)co2)cc1` gave a pKi of 7.33.

The target of another assay is T2, Sphingosine kinase 1. Nature of the assay: biochemical.
Description: Inhibition of human recombinant SPHK1 expressed in baculovirus-infected Sf9 cells
Regarding `CCCCCCCCCCCCCCNC(=O)C1(C(=N)N)CC1`, the pKi was 5.22.

As to `CCCCCCCCCCCCCCCCNC(=O)C1(C(=N)N)CC1`, the pKi is 5.27.

As to `CCCCCCCCCCCCCCCCCCNC(=O)C1(C(=N)N)CC1`, the pKi was 5.05.

Regarding `N=C(N)C1(C(=O)Nc2ccc(CCCCCCCOCc3ccccc3)cc2)CC1`, the pKi is 5.30.

In turn, `N=C(N)C1(C(=O)Nc2ccc(CCCCCCCCCc3ccccc3)cc2)CC1` showed a pKi of 6.30.

`N=C(N)C1(C(=O)Nc2ccc(CCCCCCCCc3ccccc3)cc2)CC1` gave a pKi of 5.89.

Compound `N=C(N)C1(C(=O)Nc2ccc(CCCCCCOCC3CCCCC3)cc2)CC1` had a pKi of 6.41.

Consider `N=C(N)C1(C(=O)Nc2ccc(CCCCCCCOCC3CCCCC3)cc2)CC1`, for which the pKi is 6.62.

Consider `N=C(N)C1(C(=O)Nc2ccc(CCCCCCCCOCC3CCCCC3)cc2)CC1`, for which the pKi is 6.10.

`N=C(N)C1(C(=O)Nc2ccc(CCCCCCCOCC34CC5CC(CC(C5)C3)C4)cc2)CC1` had a negative-log Ki (pKi) of 5.82.

The compound `N=C(N)C1(C(=O)NCCCCCCCCCCOCC2CCCC2)CC1` had a pKi of 6.35.

For the compound `N=C(N)C1(NC(=O)c2ccc(CCCCCCCOCC3CCCCC3)cc2)CC1`, the pKi was 6.89.

In turn, `N=C(N)C1(NC(=O)c2ccc(CCCCCCCOCC3CCCC3)cc2)CC1` showed a pKi of 6.77.

`CCCCOCCCCCCCc1ccc(C(=O)NC2(C(=N)N)CC2)cc1` had a pKi of 5.89.

The compound `CCCCCCCCCCCOc1ccc(C(=O)NC2(C(=N)N)CC2)cc1` had a pKi of 5.40.

`N=C(N)C1(NC(=O)CCCCCCCCCCOCC2CCCCC2)CC1` gave a pKi of 7.02.

`CCCCCCCCCCCCc1ccc(C(=O)NC2(C(=N)N)CCC2)cc1` had a negative logarithm of the Ki (pKi) of 5.80.

In turn, `N=C(N)[C@@H]1CCCN1C(=O)c1ccc(CCCCCCCCCC2CCCCC2)cc1` had a pKi of 7.00.

`N=C(N)[C@@H]1CCCN1C(=O)CCCCCCCCCCOCC1CCCCC1` had a pKi of 6.89.

`N=C(N)[C@@H]1CCCN1C(=O)c1ccc(-c2nc(-c3cccc(CCC4CCCCC4)c3)c[nH]2)cc1` showed a pKi of 5.70.

`N=C(N)[C@@H]1CCCN1C(=O)c1ccc(-c2nc(-c3cccc(CCC4CCCCC4)c3)cs2)cc1` showed a pKi of 6.96.
